In PMC6571122 (Journal of medicinal chemistry, 2019):
Where “and” joins values, the source holds several entries; their conditions need not be identical. Equal entries are not always repeated.

What was measured:
brain to blood ratio = settings: female, CD1, mouse, in vivo, 10 mg/kg
in vitro = settings: human, liver microsomes
[1] = mouse liver microsome intrinsic clearance; type: in vitro ADME; settings: liver microsomes
hERG = hERG (Homo sapiens, UniProt Q12809); experiment: CEREP 44 safety screen, [3H] Dofetilide binding; settings: probe [3H] Dofetilide
kinetic solubility = type: physicochemical; settings: pH 7.4, Solubility (kinetic)
thermodynamic solubility = type: physicochemical
[2] = measured LogP octanol/buffer; type: physicochemical; settings: pH 11

Sequence of hERG (Q12809 whole entry): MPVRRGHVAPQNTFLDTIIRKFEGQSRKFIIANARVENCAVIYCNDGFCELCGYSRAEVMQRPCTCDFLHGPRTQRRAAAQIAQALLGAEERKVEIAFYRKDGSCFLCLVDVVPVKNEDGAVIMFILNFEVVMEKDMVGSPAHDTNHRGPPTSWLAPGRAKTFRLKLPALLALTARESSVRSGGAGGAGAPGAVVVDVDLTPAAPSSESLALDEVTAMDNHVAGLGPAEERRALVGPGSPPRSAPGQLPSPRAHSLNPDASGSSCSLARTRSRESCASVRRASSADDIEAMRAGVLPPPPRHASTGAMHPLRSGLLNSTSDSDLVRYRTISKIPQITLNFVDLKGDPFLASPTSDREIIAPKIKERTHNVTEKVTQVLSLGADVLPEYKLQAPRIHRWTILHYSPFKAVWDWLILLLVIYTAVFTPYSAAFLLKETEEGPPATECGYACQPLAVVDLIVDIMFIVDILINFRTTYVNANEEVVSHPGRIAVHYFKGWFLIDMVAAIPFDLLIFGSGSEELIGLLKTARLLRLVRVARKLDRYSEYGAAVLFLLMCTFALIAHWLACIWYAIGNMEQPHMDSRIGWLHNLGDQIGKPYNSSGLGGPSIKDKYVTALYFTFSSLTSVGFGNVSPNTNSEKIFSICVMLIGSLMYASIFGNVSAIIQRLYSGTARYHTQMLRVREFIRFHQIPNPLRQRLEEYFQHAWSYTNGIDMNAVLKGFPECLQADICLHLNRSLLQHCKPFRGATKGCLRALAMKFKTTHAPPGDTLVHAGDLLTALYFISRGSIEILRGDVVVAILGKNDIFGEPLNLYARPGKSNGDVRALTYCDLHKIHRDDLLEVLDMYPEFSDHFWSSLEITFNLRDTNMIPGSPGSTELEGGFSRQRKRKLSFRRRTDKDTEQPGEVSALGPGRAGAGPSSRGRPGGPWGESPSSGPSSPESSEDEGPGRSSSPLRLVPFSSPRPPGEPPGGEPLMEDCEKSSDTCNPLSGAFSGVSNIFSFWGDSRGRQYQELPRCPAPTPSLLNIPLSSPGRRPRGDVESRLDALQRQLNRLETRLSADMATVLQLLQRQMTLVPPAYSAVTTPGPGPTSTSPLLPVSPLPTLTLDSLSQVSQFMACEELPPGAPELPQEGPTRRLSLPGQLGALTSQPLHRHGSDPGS

| CLint scaled (in vitro) | CLint scaled at 1 h, 10 µM (in vitro) | SMILES | other results |
| --- | --- | --- | --- |
| < 8.6 mL/min/kg |  | Nc1ncc(N2CCN(c3cccc(-c4cncnc4)c3)CC2)c(N)n1 [Compound 26, 5-(4-(3-(Pyrimidin-5-yl)phenyl)piperazin-1-yl)pyrimidine-2,4-diamine] | CLint scaled at 1 h, 10 µM [1]: 2700 mL/min/kg |
| < 8.6 mL/min/kg |  | Nc1ncc(N2CCN(c3cccc(-c4ccnnc4)c3)CC2)c(N)n1 [Compound 28, 5-(4-(3-(Pyridazin-4-yl)phenyl)piperazin-1-yl)pyrimidine-2,4-diamine] |  |
| < 8.6 mL/min/kg |  | Nc1ncc(N2CCN(c3cccc(-c4ncccn4)c3)CC2)c(N)n1 [Compound 25, 5-(4-(3-(Pyrimidin-2-yl)phenyl)piperazin-1-yl)pyrimidine-2,4-diamine] |  |
|  | 17.4 mL/min/kg | Nc1ncc(N2CCN(c3cccc(-c4cnc(C5CC5)nc4)c3)CC2)c(N)n1 [Compound 31, 5-(4-(3-(2-Cyclopropylpyrimidin-5-yl)phenyl)piperazin-1-yl)pyrimidine-2,4-diamine] |  |
| < 8.6 mL/min/kg |  | Nc1ncc(N2CCN(c3cccc(-c4cnccn4)c3)CC2)c(N)n1 [Compound 27, 5-(4-(3-(Pyrazin-2-yl)phenyl)piperazin-1-yl)pyrimidine-2,4-diamine] |  |
|  | 28.4 mL/min/kg | Nc1ncc(N2CCN(c3cccc(-c4ccccc4)c3)CC2)c(N)n1 [Compound 2] | solubility kinetic (kinetic solubility): < 4 µM; solubility thermodynamic (thermodynamic solubility): < 4 µM; logP [2]: 3.38 |
|  | 17.7 mL/min/kg | Nc1ncc(N2CCN(c3cccc(-c4ccccn4)c3)CC2)c(N)n1 [Compound 22, 5-(4-(3-(pyridin-2-yl)phenyl)piperazin-1-yl)pyrimidine-2,4-diamine] |  |
| < 8.6 mL/min/kg |  | CCc1nc(N)nc(N)c1-c1ccc(Cl)cc1 [Compound 1, Pyrimethamine, reference compound] | logP [2]: 2.71 |
|  | 10.5 mL/min/kg | Nc1ncc(N2CCN(c3cccc(-c4cnc(C(F)(F)F)nc4)c3)CC2)c(N)n1 [Compound 30, 5-(4-(3-(2-(Trifluoromethyl)pyrimidin-5-yl)phenyl)piperazin-1-yl)pyrimidine-2,4-diamine] |  |
|  | 18.7 mL/min/kg | Nc1ncc(N2CCN(c3cccc(-c4ccncc4)c3)CC2)c(N)n1 [Compound 24, 5-(4-(3-(Pyridin-4-yl)phenyl)piperazin-1-yl)pyrimidine-2,4-diamine] |  |
| < 8.6 mL/min/kg |  | Cc1ncc(-c2cccc(N3CCN(c4cnc(N)nc4N)CC3)c2)cn1 [Compound 29, 5-(4-(3-(2-methylpyrimidin-5-yl)phenyl)piperazin-1-yl)pyrimidine-2,4-diamine] | CLint scaled at 1 h, 10 µM [1]: 431 mL/min/kg |

| SMILES | CLint scaled (in vitro) | CLint scaled at 1 h, 10 µM (in vitro) | other results |
| --- | --- | --- | --- |
| COc1ncc(-c2cccc(N3CCN(c4cnc(N)nc4N)CC3)c2)cn1 [Compound 3, 5-(4-(3-(2-Methoxypyrimidin-5-yl)phenyl)piperazin-1-yl)pyrimidine-2,4-diamine] | < 8.6 mL/min/kg |  | Kp at 0.5 h (brain to blood ratio): 1.7 ± 0.6; concentration at 0.5 h (brain to blood ratio): 2560 ng/g and 1610 ng/mL; CLint scaled at 1 h, 10 µM [1]: 56.3 mL/min/kg; inhibition at 10 µM (hERG): 60% |
